The values below come from patent US20130046098A1, “KINASE INHIBITORS” (THE UNIVERSITY OF MANCHESTER, priority 2009, published 2013).

Assay [1] has as its target HGK (MAP4K4) (Homo sapiens, UniProt O95819). The experiment in a line: SelectScreen in vitro kinase profiling, single point. The settings on record: additional single point analysis, 10 μM.
The test system of assay [2] is recombinant ROCK. The experiment in a line: In vitro ROCK activity assay (Cyclex Rho-kinase immunoassay). The class given is biochemical. The settings on record: FIG. 2A bar chart. The procedure:
A specific assay was used to evaluate the ability of the compounds of the invention to inhibit ROCK. Rho-kinase activity was determined using an immunoassay as recommended by the manufacturer (Cyclex Co., Ltd., Nagano, Japan). Briefly, […] samples containing 10 mUnit (1 Unit incorporates 1 nmol of phosphate into GST-MBS/MYPT1 per minute at 30° C.) of recombinant ROCK with or without the compounds of the invention were aliquoted into a 96-well plate (100 μl/well), pre-coated with threonine Rho-kinase phosphorylation substrate. After 30 min incubation at 30° C., the plate was washed three times with PBS then incubated with 100 μl/well of HRP conjugated anti-phospho-specific antibody for 1 h at room temperature. The amount of phosphorylated substrate was determined by adding 100 μl/well of substrate reagent for 10 min and the reaction was terminated by adding 100 μl/well of the stop solution. The absorbance was measured on a 96-well plate reader at 450 nm (Dynex Technologies, West Sussex, UK). Each data point was performed in triplicate and the assay was repeated twice.

The target of assay [3] is ROCK2 (Homo sapiens, UniProt O75116). In words: SelectScreen additional single point analysis. The note with it: 10 μM.
Chain of ROCK2 (O75116 whole entry): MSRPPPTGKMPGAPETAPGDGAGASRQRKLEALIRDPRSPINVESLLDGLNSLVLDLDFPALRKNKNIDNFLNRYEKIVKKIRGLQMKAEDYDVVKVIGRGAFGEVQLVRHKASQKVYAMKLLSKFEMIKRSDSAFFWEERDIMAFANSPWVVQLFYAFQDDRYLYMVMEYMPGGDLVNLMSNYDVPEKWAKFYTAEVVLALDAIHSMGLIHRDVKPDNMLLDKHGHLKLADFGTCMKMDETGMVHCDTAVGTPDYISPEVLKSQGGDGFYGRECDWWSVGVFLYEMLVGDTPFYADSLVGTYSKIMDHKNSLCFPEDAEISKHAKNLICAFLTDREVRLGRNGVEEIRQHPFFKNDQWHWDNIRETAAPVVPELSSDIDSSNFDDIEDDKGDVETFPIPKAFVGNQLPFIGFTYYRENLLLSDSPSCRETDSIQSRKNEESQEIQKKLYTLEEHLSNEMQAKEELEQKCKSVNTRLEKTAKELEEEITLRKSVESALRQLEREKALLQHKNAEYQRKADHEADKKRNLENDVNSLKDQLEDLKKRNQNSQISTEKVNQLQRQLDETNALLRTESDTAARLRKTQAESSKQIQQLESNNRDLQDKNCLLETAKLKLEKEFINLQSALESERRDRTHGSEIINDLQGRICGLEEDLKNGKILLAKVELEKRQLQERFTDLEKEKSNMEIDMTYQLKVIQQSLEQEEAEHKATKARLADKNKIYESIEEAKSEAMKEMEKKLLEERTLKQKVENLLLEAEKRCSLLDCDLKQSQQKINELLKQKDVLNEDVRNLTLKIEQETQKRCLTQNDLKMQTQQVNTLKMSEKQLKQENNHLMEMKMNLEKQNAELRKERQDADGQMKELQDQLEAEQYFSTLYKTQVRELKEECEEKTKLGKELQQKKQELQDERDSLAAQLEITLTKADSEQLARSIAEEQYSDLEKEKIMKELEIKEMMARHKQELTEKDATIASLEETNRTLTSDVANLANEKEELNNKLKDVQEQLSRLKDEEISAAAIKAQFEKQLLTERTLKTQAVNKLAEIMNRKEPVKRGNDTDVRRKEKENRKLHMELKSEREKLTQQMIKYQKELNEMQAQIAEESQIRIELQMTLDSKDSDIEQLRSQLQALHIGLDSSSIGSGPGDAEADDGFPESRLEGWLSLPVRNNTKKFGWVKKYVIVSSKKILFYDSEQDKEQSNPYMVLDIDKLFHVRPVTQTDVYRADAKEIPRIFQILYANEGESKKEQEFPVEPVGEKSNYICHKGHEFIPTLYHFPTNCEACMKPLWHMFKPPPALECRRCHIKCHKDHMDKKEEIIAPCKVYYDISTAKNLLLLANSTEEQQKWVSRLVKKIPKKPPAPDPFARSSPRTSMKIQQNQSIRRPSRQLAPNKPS
Assay [4] has as its target ROCK1 (Homo sapiens, UniProt Q13464). The experiment in a line: SelectScreen additional single point analysis. The settings on record: 10 μM.
For assay [5], the target named is p38 alpha (MAPK14) (Homo sapiens, UniProt Q16539). In words: SelectScreen in vitro kinase profiling, single point. The note with it: additional single point analysis, 10 μM.
Chain of p38 alpha (MAPK14) (Q16539 whole entry): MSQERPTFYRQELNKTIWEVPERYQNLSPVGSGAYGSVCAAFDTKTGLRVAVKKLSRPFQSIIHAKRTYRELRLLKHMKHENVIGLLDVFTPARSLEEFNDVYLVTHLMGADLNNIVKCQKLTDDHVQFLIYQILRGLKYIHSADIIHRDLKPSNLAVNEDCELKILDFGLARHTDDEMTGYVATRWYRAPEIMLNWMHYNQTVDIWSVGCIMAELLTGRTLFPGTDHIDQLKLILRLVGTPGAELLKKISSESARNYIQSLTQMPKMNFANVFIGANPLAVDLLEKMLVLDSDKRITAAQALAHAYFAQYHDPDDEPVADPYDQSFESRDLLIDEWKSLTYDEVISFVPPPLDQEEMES
Assay [6] deals with T1, Aurora A (Homo sapiens, UniProt O14965).
T1 sequence (O14965 1-403): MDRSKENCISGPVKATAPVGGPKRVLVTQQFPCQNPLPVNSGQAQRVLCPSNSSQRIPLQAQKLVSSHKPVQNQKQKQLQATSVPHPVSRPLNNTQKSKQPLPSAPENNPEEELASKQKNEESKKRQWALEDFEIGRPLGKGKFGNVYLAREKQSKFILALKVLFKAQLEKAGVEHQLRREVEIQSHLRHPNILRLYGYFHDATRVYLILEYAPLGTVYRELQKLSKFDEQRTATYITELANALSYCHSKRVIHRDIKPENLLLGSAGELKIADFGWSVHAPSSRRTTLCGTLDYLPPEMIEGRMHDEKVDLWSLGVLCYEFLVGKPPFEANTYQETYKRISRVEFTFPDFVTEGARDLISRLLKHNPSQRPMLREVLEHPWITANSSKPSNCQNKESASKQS
The assay is described as above. The settings on record: additional single point analysis, 10 μM.

Assay [7] concerns polyclonal GEF16 transfected NIH3T3 cells. The experiment in a line: Transformed colony forming assay (Toluidine blue).
Method: Following this incubation period the compound was then removed from the culture media and cells maintained in normal growth media for a further 10 days before the photographs shown were taken.
In FIG. 4A polyclonal GEF16 transfected cells were seeded at 2.0×10^5 cells per 30 mm dish and incubated over night. […] After a further 10 days culture in the absence of inhibitors the cells were stained with Toluidine blue and photographed to produce the images shown. […] These were incubated for 3 or 6 days then stained with Toluidine blue before being photographed.
Medium (containing the compound of interest—either Y27632 or the selected compounds of the invention—or DMSO control) was changed every 2 days. Formation of foci was analysed by Toluidine blue (Sigma-Aldrich, Poole, UK) staining after 10 days growth post confluence. […] Each assay was carried out in triplicate and the results shown are representative of at least three separate experiments.
For assay [8], the system named is GEF16 transfected NIH3T3 cells. The experiment in a line: Cell proliferation assay (Celltiter Aq96). The format is cell-based, mouse. The note with it: 10 μM, Cell AQ96 absorbance at 6, 8 and 10 days. The procedure: FIG. 1D is a bar chart showing the results of Cell AQ^96 assessment of the growth of GEF16 and vector transfected cells seeded in a 96 well plate at 1×10^3 cells per well. These were incubated for 3 days followed by addition of reagent to determine the starting point for the assay. 10 μM of either Y27632 or DMSO were then added to wells containing both cell types and Cell AQ^96 absorbance measured at 6, 8 and 10 days. At day 3 cells were 100% confluent which was determined by phase contrast visual inspection of the cultures at ×20 magnification;
Cell proliferation was investigated using Celltiter Aq^96 reagent (Promega, Southampton, UK) according to the manufacturer's protocol. Cells were seeded into a 96-well plate at a density of 1×10^3 cells/well allowing 3 wells per data point and allowed to attach for a set period. Following this, the initial starting point 490 nm absorbance was determined by adding 20 μl of Aq^96 reagent to each well and incubating for 4 h at 37° C. in 5% CO2 (96-well plate reader, Dynex Technologies, West Sussex, UK). The various compounds (Y27632 or compounds of the invention) or DMSO control were then added to duplicate wells and the absorbance determined in the same way at the time points indicated. Each data set shown is representative of three separate experiments.

Assay [9] has as its system single transformed colony derived GEF16 NIH3T3 cells. In words: Growth of cell populations derived from single GEF16 transformed colonies. The format is cell-based, mouse. The note with it: FIG. 5A. The procedure: FIG. 5 illustrates that the growth suppressive effects of YA1 on single transformed colony derived GEF16 NIH3T3 cells and polyclonal Ras transformed NIH3T3 cells are more pronounced when these are co-cultured with non-transformed cells. In FIG. 5A single transformed colonies were picked from 10 day cultures of GEF16 polyclonal NIH3T3 cells and expanded. These cells were then seeded at 2.0×10^5 cells per 30 mm dish and treated with 10 μM of YA1 or DMSO control either immediately or following 10 days in culture. Duplicate wells were harvested for flow cytometry. In FIG. 5B a total of 2×10^5 cells per well were plated consisting of increasing numbers of non-transformed vector cells co-cultured with decreasing numbers of single transformed colony derived GEF16 cells. These were treated with 10 μM of either YA1 or DMSO for 10 days. In producing the results shown in FIG. 5C the same co-culture experiment described in connection with FIG. 5B was carried out substituting polyclonal Ras transformed NIH3T3 cells for GEF16 transformed cells.
Single transformed colonies were picked from GEF16 polyclonal NIH3T3 cells and expanded according to the methods described above. Expanded cell populations were plated and a compound of the invention (YA1) added either immediately or after 10 days when the cells were post-confluent.

Assay [10] deals with T2, PKC epsilon (Homo sapiens, UniProt Q02156).
T2 sequence (Q02156 1-737): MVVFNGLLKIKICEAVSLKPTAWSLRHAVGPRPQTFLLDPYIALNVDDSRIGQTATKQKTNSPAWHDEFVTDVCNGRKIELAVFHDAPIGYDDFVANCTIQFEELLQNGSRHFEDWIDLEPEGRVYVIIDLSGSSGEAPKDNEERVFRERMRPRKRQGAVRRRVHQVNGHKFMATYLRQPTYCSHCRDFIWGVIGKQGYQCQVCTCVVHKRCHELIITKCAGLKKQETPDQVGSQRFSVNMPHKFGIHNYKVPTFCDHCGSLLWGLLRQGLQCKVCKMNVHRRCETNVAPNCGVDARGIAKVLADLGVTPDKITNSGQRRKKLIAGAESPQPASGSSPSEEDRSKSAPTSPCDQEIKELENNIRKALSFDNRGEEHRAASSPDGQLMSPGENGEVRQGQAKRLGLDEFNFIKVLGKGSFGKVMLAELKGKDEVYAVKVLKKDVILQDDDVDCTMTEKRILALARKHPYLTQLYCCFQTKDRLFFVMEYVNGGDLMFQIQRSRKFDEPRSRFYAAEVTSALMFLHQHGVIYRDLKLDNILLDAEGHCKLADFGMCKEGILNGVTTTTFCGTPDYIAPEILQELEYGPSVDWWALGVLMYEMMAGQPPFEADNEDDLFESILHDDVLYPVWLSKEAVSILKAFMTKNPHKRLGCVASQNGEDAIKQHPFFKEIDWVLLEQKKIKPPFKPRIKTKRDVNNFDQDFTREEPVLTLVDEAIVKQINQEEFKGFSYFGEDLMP
The note with it: 10 μM; cited from earlier work.

SMILES strings stand for the structures. “Also recorded” adds a separate entry of the source.

Chain of ROCK1 (Q13464 whole entry): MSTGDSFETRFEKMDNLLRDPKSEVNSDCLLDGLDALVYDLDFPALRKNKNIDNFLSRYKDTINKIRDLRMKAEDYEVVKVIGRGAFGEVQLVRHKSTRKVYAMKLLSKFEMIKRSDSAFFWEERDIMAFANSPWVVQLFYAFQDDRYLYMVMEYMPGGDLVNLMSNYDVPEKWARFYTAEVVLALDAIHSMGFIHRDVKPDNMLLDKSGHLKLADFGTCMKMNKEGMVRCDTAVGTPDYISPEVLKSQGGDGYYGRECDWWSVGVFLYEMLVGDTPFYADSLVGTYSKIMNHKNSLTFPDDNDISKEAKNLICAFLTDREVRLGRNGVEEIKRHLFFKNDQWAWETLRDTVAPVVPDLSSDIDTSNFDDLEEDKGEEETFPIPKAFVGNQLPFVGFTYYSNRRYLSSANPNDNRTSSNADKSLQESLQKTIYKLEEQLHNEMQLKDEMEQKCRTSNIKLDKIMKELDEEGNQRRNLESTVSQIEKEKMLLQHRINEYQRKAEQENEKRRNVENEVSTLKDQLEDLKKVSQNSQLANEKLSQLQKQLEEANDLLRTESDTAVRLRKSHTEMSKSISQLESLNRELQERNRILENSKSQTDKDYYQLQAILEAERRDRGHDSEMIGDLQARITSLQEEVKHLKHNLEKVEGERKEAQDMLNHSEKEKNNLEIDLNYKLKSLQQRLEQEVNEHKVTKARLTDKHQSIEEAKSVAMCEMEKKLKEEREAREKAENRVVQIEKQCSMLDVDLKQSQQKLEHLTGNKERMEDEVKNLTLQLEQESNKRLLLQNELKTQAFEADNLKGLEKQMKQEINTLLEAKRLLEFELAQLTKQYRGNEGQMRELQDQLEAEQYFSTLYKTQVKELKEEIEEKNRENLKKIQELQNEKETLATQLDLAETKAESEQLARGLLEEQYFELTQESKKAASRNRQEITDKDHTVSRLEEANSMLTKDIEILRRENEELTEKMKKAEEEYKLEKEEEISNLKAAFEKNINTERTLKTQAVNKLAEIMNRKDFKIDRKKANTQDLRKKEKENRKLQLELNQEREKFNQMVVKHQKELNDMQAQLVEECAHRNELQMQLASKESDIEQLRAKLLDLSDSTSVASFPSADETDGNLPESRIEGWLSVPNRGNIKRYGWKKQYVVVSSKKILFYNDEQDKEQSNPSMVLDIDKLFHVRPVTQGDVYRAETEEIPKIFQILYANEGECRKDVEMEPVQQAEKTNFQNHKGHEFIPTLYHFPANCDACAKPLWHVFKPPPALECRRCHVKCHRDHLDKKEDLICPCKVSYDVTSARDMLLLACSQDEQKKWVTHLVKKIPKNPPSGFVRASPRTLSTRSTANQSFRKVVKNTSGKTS
Chain of HGK (MAP4K4) (O95819 whole entry): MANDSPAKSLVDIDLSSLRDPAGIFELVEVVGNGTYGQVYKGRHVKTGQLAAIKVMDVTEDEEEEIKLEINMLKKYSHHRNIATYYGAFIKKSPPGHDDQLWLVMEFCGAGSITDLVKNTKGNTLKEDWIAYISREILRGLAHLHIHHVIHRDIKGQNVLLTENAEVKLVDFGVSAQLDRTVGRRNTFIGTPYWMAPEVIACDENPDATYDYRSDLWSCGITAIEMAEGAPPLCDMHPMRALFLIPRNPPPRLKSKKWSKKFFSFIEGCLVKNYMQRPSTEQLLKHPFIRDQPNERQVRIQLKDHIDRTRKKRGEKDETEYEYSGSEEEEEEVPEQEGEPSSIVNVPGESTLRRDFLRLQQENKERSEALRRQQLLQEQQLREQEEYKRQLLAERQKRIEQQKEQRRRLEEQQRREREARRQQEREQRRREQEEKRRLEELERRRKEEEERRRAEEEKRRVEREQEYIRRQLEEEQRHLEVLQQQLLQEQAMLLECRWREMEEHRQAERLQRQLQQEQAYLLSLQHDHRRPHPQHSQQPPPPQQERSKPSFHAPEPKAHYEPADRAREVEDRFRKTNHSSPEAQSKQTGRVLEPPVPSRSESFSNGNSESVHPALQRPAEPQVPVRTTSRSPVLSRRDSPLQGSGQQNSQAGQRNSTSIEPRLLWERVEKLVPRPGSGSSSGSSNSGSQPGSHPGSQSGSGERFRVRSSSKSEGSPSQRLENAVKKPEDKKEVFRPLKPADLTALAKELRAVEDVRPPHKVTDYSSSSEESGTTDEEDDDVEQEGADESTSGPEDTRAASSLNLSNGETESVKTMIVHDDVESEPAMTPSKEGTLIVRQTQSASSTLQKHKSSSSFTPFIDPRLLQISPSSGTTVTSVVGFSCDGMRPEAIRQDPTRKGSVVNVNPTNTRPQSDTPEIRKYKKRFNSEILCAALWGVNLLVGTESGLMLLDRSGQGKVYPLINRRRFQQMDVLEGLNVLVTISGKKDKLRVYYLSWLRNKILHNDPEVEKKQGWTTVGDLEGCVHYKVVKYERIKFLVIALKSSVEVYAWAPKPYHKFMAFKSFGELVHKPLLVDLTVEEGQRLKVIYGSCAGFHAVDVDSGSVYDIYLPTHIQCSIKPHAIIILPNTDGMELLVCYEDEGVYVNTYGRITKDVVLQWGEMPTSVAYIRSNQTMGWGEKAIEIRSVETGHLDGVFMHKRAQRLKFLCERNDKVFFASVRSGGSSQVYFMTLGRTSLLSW

Take `CN(C(=O)c1ccc(CNC(=O)OC(C)(C)C)cc1)c1ccncc1` [YA4, 4-(N-Methyl-N-pyridin-4-ylcarbamoyl)benzylcarbamic acid tert-butyl ester]: in assay [1], the “activity against HGK” value was “significant activity against p38, HGK and Aurora A”. Besides, the “ROCK inhibitory activity compared to Y27632” value in assay [2] was “lower ROCK inhibitory activity; also recorded: significantly less activity against ROCK than did their structural analogue Y27632”. In assay [3], the “activity against ROCK2” value is “less activity against ROCKs than YA2”. Moreover, the “activity against ROCK1” value in [4] is given as “less activity against ROCKs than YA2”. Besides, the “activity against p38” value in [5] was “significant activity against p38, HGK and Aurora A”. In addition, the “activity against Aurora A” value in assay [6] is “significant activity against p38, HGK and Aurora A”.
In the case of `C[S+]([O-])c1ccc(-c2nc(-c3ccncc3)c(-c3ccc(F)cc3)[nH]2)cc1` (stereo not shown) [SB203580, reference compound], the “activity against GEF16 transformed colonies” value in [7] (further studies by the inventors) was “some activity against GEF16 transformed colonies although this was much less than the compound of the invention YA1”.
In the case of `C[C@@H](N)[C@H]1CC[C@H](C(=O)Nc2ccncc2)CC1` [Compound Y27632, reference compound], the “growth of confluent GEF16 transformed cells” value in assay [8] is “inhibits the growth of confluent GEF16 transformed cells”. In addition, the “transformed focus formation after treatment, re-seeding and chase” value in assay [7] (10 μM for 2-10 days, re-seeded at 2×10^5, 10 day chase without inhibitor) is given as “able to suppress transformed focus formation”. In addition, the “formation of GEF16 transformed colonies” value in assay [7] (10 μM, 10 days, post confluent cultures) was “suppresses the formation of GEF16 transformed NIH3T3 cell colonies”. In addition, the “effect on pre-formed transformed colonies” value in [7] (colonies formed for 10 days, then 10 μM or 20 μM for 3 and 6 days) is “very little effect on pre-formed transformed colonies; also recorded: Neither Y27632 nor the other compounds of the invention tested (data not shown) exhibited this property”. Besides, in [9], the “effect on single colony derived GEF16 transformed cells grown in the absence of non-transformed cells” value is “little or no effect”. In addition, the “inhibition of PKC epsilon” value in assay [10] is listed as 94%.
